The test system of data set [1] is murine monocytes from bone marrow. As to the kind of experiment: Murine monocyte DC differentiation with SNU398 cells or conditioned media. The data set is classed as cell-based, mouse. Particulars: HCC cells pre-treated. An excerpt: (§1) FIGS. 22A-22E: RALDH1 inhibition blocks RA-mediated effects of HCC on monocyte differentiation. FIGS. 22A-22B: Circulating primary human monocytes from donors (FIG. 22A) or murine monocytes from bone marrow (FIG. 22B) were cocultured with SNU398 (Human HCC) cells or treated with SNU398-conditioned media (CM) in a DC differentiation system (GM-CSF and IL-4). Two-color histograms show the frequencies of DCs (CD11c^+CD1a^+ for human and CD11c^+MHCII^+ for mouse). The presence of SNU398 or its CM suppressed DC differentiation, which is reversed when SNU398 cells are treated with C86. Three or more independent experiments were performed with at least three replicates per experimental group. Unpaired t test, two-tailed. FIG. 22C: Huh7 (human HCC) cells were subcutaneously injected into flanks of NU/J mice. 12 days later the tumor size was about 50 mm^3 and C86 or vehicle treatment (10 mg/kg, i.p, daily injection) was started. […] The frequencies of the host (murine) DCs (CD45^+F4/80^−CD11C^+MHCII-high) and macrophages (CD45^+F4/80^+) are quantified in a bar graph. […] Shown are the representative FCM plot (histogram) and DC quantification (bar graph). […]
Monocytes were isolated from bone marrow of C57BL/6 mice using the Mouse BM Monocyte Isolation Kit (Miltenyi Biotec) according to manufacturer's instructions. Purity of monocyte was assessed by flow cytometry using CD11b, Ly6C, and Ly6G. […]

In data set [2] the test system is monocytes in Huh7 tumors. As to the kind of experiment: Differentiation of human monocytes injected into Huh7 tumors in NU/J mice. The data set is classed as in vivo, mouse. As to conditions: 10 mg/kg, i.p, daily.
Description: as §1
Monocytes were isolated (as described above) from mouse bone marrow of C57BL/6 mice and counted. […] Tumors were harvested at specified time points and analyzed by flow cytometry. […]

The target of data set [3] is T1, Cholinesterase, Acetyl, ACES (Homo sapiens, UniProt P22303).
T1 construct: Eurofins Cerep Panlabs (contract panel)
The experiment in a line: Safetyscreen: Acetyl cholinesterase. The data set is classed as biochemical. Particulars: read-out: % Inh. Cholinesterase, Acetyl, ACES.

Data set [4] has as its target T2, Cyclooxygenase COX-1 (Homo sapiens, UniProt P23219).
T2 construct: Eurofins Cerep Panlabs (contract panel)
As to the kind of experiment: Safetyscreen: COX-1. The data set is classed as biochemical. As to conditions: read-out: % Inh. Cyclooxygenase COX-1.

Data set [5] concerns Calcium Channel L-Type, Dihydropyridine. As to the kind of experiment: Safetyscreen: Ca channel L-type, dihydropyridine. Particulars: 10 μM. The data set is classed as binding, rat.
The subject of data set [6] is GABAA, Ro-15-1788, Hippocampus. The experiment in a line: Safetyscreen: GABAA, Ro-15-1788. The data set is classed as binding, rat. Particulars: 10 μM.
Data set [7] addresses T3, Glutamate, Metabotropic, mGlu5 (Homo sapiens, UniProt P41594).
T3 construct: purchased Eurofins Cereps Panlabs
The experiment in a line: Safetyscreen: mGlu5. The data set is classed as binding. Particulars: read-out: % Inh. Glutamate, Metabotropic, mGlu5.

Data set [8] concerns the target T4, Leukotriene, Cysteinyl CysLT1 (Homo sapiens, UniProt Q9Y271).
T4 construct: purchased Eurofins Cereps Panlabs
As to the kind of experiment: Safetyscreen: CysLT1. The data set is classed as binding. As to conditions: read-out: % Inh. Leukotriene, Cysteinyl CysLT1.

Data set [9] concerns the target T5, Muscarinic M1 (Homo sapiens, UniProt P11229).
T5 construct: Eurofins Cereps Panlabs (contract panel)
The experiment in a line: Safetyscreen: Muscarinic M1. The data set is classed as binding. Particulars: read-out: % Inh. Muscarinic M1.

For data set [10], the target named is T6, Muscarinic M4 (Homo sapiens, UniProt P08173).
T6 construct: Eurofins Cereps Panlabs (contract panel)
The experiment in a line: Safetyscreen: Muscarinic M4. The data set is classed as binding. Particulars: read-out: % Inh. Muscarinic M4.

Data set [11] addresses T7, Neuropeptide Y Y1 (Homo sapiens, UniProt P25929).
T7 construct: Eurofins Cereps Panlabs (contract panel)
The experiment in a line: Safetyscreen: Neuropeptide Y Y1. The data set is classed as binding. Particulars: read-out: % Inh. Neuropeptide Y Y1.

Data set [12] deals with T8, Potassium Channel [KATP] (Cricetus cricetus, UniProt Q09427).
T8 construct: Eurofins Cereps Panlabs (contract panel)
The experiment in a line: Safetyscreen: Potassium Channel KATP. The data set is classed as binding, hamster. Particulars: read-out: % Inh. Potassium Channel [KATP].

Data set [13] addresses T9, Serotonin (5-Hydroxytryptamine) 5-HT2C (Homo sapiens, UniProt P28335).
T9 construct: Eurofins Cereps Panlabs (contract panel)
As to the kind of experiment: Safetyscreen: 5-HT2C. The data set is classed as binding. As to conditions: read-out: % Inh. Serotonin (5-Hydroxytryptamine) 5-HT2C.

Data set [14] has as its system Transporter, Adenosine. The experiment in a line: Safetyscreen: Adenosine transporter. The data set is classed as binding, guinea pig. Particulars: 10 μM.
Data set [15] in a line: Toxicity observations with Raldh1-INH. As to conditions: mouse, in vivo.
Description: Male CD1 or C57BL/6J mice between 6 and 8 weeks old and weighing approximately 20 to 30 grams were dosed with compound 86, compound 91, and compound 99 at 2 mg/kg (IV), 10 mg/kg (PO), and 10 or 30 mg/kg (IP). The compounds were formulated using a 20% hydroxypropyl-beta-cyclodextrin (HPbCD) solution in saline, was made on the day of dosing or directly prior to dosing. Each treatment group consisted of three mice, and plasma was collected at 5 minutes, 15 minutes, 30 minutes, 1 hour, 2 hours, 4 hours, 8 hours, 12 hours, and 24 hours post-dose for IV administration and at 15 minutes, 30 minutes, 1 hour, 2 hours, 4 hours, 8 hours, 12 hours, and 24 hours post-dose for PO administration. Approximately 0.025 mL of blood was collected from the dorsal metatarsal vein at each time point. […] Plasma samples were then stored in polypropylene tubes, quickly frozen, and kept at −75° C. until analyzed by LC/MS/MS. The following pharmacokinetic parameters were measured: Terminal half-life (T½), Concentration at immediately after injection (C0), Maximum concentration (Cmax), Time to reach max concentration (Tmax), Clearance (CL), Volume of distribution (Vd), Area under the curve (AUClast), and bioavailability (% F). Animals were also monitored during the in-life phase by once daily cage side observations; any adverse clinical signs were noted as part of the PK report.

T6 sequence (P08173 whole entry): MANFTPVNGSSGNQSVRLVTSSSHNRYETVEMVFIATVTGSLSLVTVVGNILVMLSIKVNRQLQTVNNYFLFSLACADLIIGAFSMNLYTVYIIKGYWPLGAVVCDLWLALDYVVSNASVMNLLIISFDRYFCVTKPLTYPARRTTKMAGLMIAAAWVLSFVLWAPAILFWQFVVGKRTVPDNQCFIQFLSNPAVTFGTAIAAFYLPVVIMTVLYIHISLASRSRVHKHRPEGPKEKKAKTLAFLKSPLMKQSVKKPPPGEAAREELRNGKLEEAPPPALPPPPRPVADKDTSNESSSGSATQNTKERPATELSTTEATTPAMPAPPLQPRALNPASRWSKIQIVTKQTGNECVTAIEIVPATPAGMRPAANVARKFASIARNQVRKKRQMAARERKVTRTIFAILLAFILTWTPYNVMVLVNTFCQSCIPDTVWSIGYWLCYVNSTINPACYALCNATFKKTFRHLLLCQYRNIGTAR
T3 sequence (P41594 21-1212): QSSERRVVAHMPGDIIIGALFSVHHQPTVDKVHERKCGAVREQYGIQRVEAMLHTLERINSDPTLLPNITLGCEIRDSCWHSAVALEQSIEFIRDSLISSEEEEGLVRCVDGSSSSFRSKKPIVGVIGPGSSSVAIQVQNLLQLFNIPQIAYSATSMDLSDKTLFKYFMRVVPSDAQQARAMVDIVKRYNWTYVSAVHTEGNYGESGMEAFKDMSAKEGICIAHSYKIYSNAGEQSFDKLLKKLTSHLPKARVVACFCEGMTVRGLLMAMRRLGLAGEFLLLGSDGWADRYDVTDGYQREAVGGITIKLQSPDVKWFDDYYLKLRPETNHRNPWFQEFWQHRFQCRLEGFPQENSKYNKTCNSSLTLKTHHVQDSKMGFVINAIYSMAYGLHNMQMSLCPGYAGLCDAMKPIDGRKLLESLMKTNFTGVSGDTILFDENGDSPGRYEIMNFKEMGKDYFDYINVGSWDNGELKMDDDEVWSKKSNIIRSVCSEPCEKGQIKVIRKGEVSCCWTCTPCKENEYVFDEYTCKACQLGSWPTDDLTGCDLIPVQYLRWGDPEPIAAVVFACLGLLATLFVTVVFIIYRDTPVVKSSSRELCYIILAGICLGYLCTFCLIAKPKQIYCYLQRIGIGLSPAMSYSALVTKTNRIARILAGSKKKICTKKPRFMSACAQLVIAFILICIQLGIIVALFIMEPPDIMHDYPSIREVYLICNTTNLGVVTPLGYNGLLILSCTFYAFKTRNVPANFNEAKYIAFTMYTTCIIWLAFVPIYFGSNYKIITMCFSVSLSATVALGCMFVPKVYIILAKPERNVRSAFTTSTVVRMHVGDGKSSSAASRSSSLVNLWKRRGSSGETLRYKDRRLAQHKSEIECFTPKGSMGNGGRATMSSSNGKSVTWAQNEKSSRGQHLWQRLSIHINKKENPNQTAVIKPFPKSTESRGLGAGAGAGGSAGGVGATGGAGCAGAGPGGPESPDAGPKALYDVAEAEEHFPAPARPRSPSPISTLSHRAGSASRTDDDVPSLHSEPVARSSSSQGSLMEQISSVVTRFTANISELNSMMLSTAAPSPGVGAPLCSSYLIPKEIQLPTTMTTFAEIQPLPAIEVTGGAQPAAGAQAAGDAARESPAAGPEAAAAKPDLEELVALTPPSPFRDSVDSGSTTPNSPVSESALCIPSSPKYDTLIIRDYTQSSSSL
T4 sequence (Q9Y271 whole entry): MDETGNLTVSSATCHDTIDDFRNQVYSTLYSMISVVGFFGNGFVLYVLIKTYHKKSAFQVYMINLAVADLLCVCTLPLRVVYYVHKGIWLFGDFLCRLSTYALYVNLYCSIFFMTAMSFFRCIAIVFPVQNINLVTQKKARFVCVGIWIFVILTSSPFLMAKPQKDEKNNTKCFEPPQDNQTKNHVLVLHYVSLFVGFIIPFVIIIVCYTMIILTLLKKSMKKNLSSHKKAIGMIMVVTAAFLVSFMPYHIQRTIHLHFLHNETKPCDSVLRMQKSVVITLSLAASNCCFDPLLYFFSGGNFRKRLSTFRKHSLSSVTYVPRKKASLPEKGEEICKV
T8 sequence (Q09427 whole entry): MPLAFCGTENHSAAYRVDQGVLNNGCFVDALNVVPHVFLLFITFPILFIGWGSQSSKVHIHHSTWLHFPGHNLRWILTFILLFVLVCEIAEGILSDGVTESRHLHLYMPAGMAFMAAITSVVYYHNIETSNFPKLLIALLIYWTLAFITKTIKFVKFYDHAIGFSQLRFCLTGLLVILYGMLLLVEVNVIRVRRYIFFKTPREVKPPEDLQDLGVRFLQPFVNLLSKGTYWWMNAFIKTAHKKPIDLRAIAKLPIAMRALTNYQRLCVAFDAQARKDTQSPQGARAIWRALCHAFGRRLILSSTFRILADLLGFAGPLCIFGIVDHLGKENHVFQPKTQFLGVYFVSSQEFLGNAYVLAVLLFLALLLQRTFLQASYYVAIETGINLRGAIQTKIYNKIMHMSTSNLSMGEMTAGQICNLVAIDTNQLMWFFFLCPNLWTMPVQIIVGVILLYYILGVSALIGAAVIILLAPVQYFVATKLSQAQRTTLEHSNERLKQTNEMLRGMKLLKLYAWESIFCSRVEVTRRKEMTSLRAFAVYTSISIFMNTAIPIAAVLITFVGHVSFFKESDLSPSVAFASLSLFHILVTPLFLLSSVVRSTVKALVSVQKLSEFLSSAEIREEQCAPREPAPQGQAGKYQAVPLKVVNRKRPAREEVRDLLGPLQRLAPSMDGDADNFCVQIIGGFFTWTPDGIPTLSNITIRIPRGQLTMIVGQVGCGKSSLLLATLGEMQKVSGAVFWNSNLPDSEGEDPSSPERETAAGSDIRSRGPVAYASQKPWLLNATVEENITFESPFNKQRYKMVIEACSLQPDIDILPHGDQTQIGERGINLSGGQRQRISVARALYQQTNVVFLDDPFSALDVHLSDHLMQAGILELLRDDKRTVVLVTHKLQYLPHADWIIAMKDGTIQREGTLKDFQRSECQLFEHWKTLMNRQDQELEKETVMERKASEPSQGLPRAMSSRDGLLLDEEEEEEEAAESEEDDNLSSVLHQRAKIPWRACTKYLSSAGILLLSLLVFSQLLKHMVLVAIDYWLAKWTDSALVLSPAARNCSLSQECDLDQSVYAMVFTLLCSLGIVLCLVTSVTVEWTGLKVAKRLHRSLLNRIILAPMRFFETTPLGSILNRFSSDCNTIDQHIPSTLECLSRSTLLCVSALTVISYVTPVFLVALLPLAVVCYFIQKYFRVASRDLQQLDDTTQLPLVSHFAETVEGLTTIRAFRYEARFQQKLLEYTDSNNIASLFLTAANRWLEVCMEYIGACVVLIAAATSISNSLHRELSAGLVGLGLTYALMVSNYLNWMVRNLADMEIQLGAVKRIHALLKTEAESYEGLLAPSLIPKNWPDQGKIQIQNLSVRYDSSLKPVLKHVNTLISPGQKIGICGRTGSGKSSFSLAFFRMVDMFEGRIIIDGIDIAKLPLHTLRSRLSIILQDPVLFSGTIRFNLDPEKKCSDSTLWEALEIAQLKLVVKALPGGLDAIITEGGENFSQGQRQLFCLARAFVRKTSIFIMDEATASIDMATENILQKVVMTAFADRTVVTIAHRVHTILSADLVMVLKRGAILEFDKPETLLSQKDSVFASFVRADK
T1 sequence (P22303 32-614): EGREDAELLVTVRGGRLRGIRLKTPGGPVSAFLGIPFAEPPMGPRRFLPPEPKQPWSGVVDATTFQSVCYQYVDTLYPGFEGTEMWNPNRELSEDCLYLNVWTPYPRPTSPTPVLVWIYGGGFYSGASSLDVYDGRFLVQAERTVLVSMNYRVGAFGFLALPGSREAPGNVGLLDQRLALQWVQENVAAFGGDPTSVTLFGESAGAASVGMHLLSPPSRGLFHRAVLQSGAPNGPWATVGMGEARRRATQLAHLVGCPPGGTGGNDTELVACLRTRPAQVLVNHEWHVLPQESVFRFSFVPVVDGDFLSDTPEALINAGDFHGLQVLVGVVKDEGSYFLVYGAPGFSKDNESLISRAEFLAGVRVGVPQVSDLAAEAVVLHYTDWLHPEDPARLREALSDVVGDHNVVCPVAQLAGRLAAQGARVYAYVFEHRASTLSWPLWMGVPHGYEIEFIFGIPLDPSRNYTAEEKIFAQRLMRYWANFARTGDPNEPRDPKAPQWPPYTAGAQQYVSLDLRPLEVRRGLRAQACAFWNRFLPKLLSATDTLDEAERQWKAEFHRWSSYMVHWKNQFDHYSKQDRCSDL
T9 sequence (P28335 33-458): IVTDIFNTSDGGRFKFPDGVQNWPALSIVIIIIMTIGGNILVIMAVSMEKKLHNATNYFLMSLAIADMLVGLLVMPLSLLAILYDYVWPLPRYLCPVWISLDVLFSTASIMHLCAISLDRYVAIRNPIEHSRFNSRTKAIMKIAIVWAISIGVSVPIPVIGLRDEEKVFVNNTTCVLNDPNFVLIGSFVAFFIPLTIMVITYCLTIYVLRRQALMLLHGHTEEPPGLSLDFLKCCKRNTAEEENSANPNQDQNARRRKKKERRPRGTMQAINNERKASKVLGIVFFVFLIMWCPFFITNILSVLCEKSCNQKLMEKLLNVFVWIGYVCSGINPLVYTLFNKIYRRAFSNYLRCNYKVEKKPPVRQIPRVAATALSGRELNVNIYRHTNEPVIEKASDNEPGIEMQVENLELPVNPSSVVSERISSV
T7 sequence (P25929 whole entry): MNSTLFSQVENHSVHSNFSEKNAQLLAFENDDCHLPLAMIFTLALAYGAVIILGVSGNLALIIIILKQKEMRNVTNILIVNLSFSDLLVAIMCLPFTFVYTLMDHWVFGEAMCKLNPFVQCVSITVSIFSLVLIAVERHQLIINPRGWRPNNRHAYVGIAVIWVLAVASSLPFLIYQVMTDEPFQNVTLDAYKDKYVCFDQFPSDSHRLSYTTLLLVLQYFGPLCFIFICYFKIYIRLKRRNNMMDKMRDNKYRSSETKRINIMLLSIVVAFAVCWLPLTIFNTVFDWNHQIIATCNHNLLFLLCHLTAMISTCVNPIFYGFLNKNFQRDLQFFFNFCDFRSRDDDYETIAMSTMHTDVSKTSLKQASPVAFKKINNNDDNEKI

Regarding `CS(=O)(=O)N1CCN(C(=O)c2cnc3ccc(F)cc3c2N2CCC(C#N)(c3ccccc3)CC2)CC1` [Compound C-86, 1-(6-fluoro-3-(4-(methylsulfonyl)piperazine-1-carbonyl)quinolin-4-yl)-4-phenylpiperidine-4-carbonitrile], in [1], the “suppression of DC differentiation by HCC cells or CM” value is given as “reversed”. Moreover, the “frequency of host (murine) DCs and macrophages in the TME” value in data set [2] is “increased frequency of DCs and reduced frequency of macrophages”. Moreover, the “DC differentiation from transplanted human monocytes” value in data set [2] (five days after monocyte injection) is “increased DC differentiation”. The inhibition at 10 µM in data set [3] amounted to 3%; in data set [4] it was 6%; in [7], 16%; in data set [8], 5%; in data set [9], 3%; in data set [10], 13%. Further, the inhibition at 10 µM in data set [11] was determined as 11%; in data set [12], 28%; in data set [13] it was 22%. The “% Inh. Calcium Channel L-Type, Dihydropyridine” value in data set [5] was 23%. Also, in data set [6], the “% Inh. GABAA, Ro-15-1788, Hippocampus” value is on record as −7%. The “% Inh. Transporter, Adenosine” value in data set [14] is given as 56%. Moreover, the signs of toxicity entry in data set [15] is listed as “no signs of toxicity have been observed”.

For the origin of these results see patent US20260248799A1, “COMBINATIONS OF RETINALDEHYDE DEHYDROGENASE 1 (RALDH1) INHIBITORS AND IMMUNOSTIMULATORS AND METHODS USING SAME” (The Trustees of the University of Pennsylvania, priority 2023, published 2026).
